Assay results: article PMC4749519, “Isoprenylated Flavonoids with PTP1B Inhibition from Macaranga denticulata” (Natural Products and Bioprospecting, 2016)

molecular target: T1, protein tyrosine phosphatase 1B (PTP1B) (Homo sapiens, UniProt P18031); test: Assay of PTP1B activity (in vitro enzyme inhibition); type: biochemical; conditions: in vitro PTP1B enzymatic activity; oleanolic acid as positive control; read-out: IC50 ± SD, inhibitory activity against PTP1B
T1 sequence (P18031 1-435): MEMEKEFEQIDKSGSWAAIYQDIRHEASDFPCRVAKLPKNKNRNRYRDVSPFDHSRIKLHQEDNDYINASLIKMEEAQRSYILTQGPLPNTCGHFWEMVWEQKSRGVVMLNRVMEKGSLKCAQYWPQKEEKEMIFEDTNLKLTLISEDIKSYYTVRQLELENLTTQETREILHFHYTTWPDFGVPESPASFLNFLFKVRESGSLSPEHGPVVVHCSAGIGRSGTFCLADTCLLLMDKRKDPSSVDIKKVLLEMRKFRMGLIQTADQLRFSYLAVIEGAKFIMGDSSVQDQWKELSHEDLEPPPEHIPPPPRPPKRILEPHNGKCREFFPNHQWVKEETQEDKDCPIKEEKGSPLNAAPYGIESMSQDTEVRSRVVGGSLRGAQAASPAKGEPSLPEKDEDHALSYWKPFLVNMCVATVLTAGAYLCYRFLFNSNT
Method: The bioassay procedure was the same as that reported previously. The result of PTP1B inhibition was expressed as IC50, which was calculated with Prism 4 software (Graphpad, San Diego, CA).

Row | Structure (SMILES) | IC50 [µM]
1 | CC(C)=CCC/C(C)=C/Cc1c(O)cc2c(c1O)C(=O)C[C@@H](c1ccc(O)cc1)O2 [Compound 9, bonannione A] | 14 ± 1.2
2 | COc1ccc(/C=C/C(=O)c2c(O)c(C)c(O)c3c2OC(C)(C)C=C3)cc1 [Compound 4, (2E)-1-(5,7-dihydroxy-2,2,6-trimethyl-2H-benzopyran-8-yl)-3-(4-methoxyphenyl)-2-propen-1-one] | 48.8 ± 5.5
3 | CC1(C)C=Cc2c(O)c(C(=O)/C=C/c3ccc(O)cc3)c3c(c2O1)C=CC(C)(C)O3 [Compound 6, laxichalcone] | 20.7 ± 5.3
4 | CC1(C)C=Cc2c(O)cc(O)c(C(=O)/C=C/c3ccccc3)c2O1 [Compound 5, (2E)-1-(5,7-dihydroxy-2,2-dimethyl-2H-benzopyran-8-yl)-3-phenyl-2-propen-1-one] | 19.3 ± 1.4

Further lines, results first:

Row | IC50 [µM] | Structure (SMILES)
5 | 22.7 ± 4.6 | CC(C)=CCC/C(C)=C/Cc1c(O)cc2oc(-c3ccc(O)cc3)c(O)c(=O)c2c1O [Compound 7, macarangin]
6 | 15.2 ± 2.8 | CC(C)=CCC/C(C)=C/Cc1c(O)cc2c(c1O)C(=O)[C@H](O)[C@@H](c1ccc(O)cc1)O2 [Compound 8, bonanniol A]
